According to patent US9233989B2, “Sila analogs of oxazolidinone derivatives and synthesis thereof” (Council of Scientific & Industrial Research, priority 2011, dated 2016):
In brackets after ≈: the same amount, converted by molar mass.

What was measured:
[1] = system: S.aureus ATCC 13709 Smith; test: MIC by microbroth dilution method; type: cell-based
S.aureus ATCC 29213 = test: MIC by microbroth dilution method; type: cell-based
MRSA ATCC 43300 = test: MIC by microbroth dilution method; type: cell-based, S. aureus
MRSA 562 = test: MIC by microbroth dilution method; type: cell-based, S. aureus
S.aureus2 (PVL + ve) = type: cell-based, S. aureus
[2] = system: S.aureus ATCC Newman 25904; test: MIC by microbroth dilution method; type: cell-based
MRSA ATCC BAA 39 = test: MIC by microbroth dilution method; type: cell-based, S. aureus
S.aureus DB00026 = test: MIC by microbroth dilution method; type: cell-based
MRSA 252 BAA 1720 = test: MIC by microbroth dilution method; type: cell-based, S. aureus
S.epidermidis ATCC 14990 = test: MIC by microbroth dilution method; type: cell-based
MRSE ATCC 35984 = test: MIC by microbroth dilution method; type: cell-based, S. epidermidis
E.faecalis ATCC 29212 = test: MIC by microbroth dilution method; type: cell-based
[3] = system: E.faecalis ATCC 51299(VRE&HLAR); test: MIC by microbroth dilution method; type: cell-based
E.faecalis ATCC 19433 = test: MIC by microbroth dilution method; type: cell-based
E.faecium ATCC 19434 = test: MIC by microbroth dilution method; type: cell-based
E.faecium ATCC 49224 = test: MIC by microbroth dilution method; type: cell-based
E.faecium ATCC 35667 = test: MIC by microbroth dilution method; type: cell-based
E.coli 7632 = test: MIC by microbroth dilution method; type: cell-based
[4] = system: S.aureus ATCC 49775 PVL + ve; type: cell-based
[5] = system: S.aureus ATCC 700699 Mu50; test: MIC by microbroth dilution method; type: cell-based
MRSA 0-2657 = test: MIC by microbroth dilution method; type: cell-based, S. aureus
MRSA DB 00026 = test: MIC by microbroth dilution method; type: cell-based, S. aureus
[6] = system: S.aureus 13709 LNZ mutant; type: cell-based
S.epidermidis ATCC 12228 = test: MIC by microbroth dilution method; type: cell-based
MRSE ATCC 35983 = test: MIC by microbroth dilution method; type: cell-based, S. epidermidis
S.epidermis St 358 = test: MIC by microbroth dilution method; type: cell-based, S. epidermidis
E.faecalis SP 346 VRE = test: MIC by microbroth dilution method; type: cell-based
E.faecium 6A VRE = test: MIC by microbroth dilution method; type: cell-based
E.faecium 134 VRE = test: MIC by microbroth dilution method; type: cell-based
E.faecium 06076 VRE = test: MIC by microbroth dilution method; type: cell-based
E.faecium ATCC 3567 = test: MIC by microbroth dilution method; type: cell-based
[7] = system: Mycobacterium tuberculosis H37Rv; test: Anti-TB activity, colorimetric resazurin microtiter assay; type: cell-based; details: for MIC: Mycobacterium tuberculosis, H37RV, read-out: MIC, Minimum Inhibitory Concentration (90%)

| SMILES | MIC [1] [µg/mL] | MIC (S.aureus ATCC 29213) [µg/mL] | MIC (MRSA ATCC 43300) [µg/mL] | MIC (MRSA 562) [µg/mL] | MIC (S.aureus2 (PVL + ve)) [µg/mL] | MIC [2] [µg/mL] | MIC (MRSA ATCC BAA 39) [µg/mL] | MIC (S.aureus DB00026) [µg/mL] | MIC (MRSA 252 BAA 1720) [µg/mL] | MIC (S.epidermidis ATCC 14990) [µg/mL] | MIC (MRSE ATCC 35984) [µg/mL] | MIC (E.faecalis ATCC 29212) [µg/mL] | MIC [3] [µg/mL] | MIC (E.faecalis ATCC 19433) [µg/mL] | MIC (E.faecium ATCC 19434) [µg/mL] | MIC (E.faecium ATCC 49224) [µg/mL] | MIC (E.faecium ATCC 35667) [µg/mL] | MIC (E.coli 7632) [µg/mL] | MIC [4] [µg/mL] | MIC [5] [µg/mL] | other results |
| --- | --- | --- | --- | --- | --- | --- | --- | --- | --- | --- | --- | --- | --- | --- | --- | --- | --- | --- | --- | --- | --- |
| CC(=O)NC[C@H]1CN(c2ccc(N3CC[Si](C)(C)CC3)c(F)c2)C(=O)O1 [NDS-10024, (S)—N-((3-(4-(4,4-dimethyl-1,4-azasilinan-1-yl)-3-fluorophenyl)-2-oxooxazolidin-5-yl)methyl)acetamide] | 16 (≈ 42.2 µM) | 16 (≈ 42.2 µM) | 16 (≈ 42.2 µM) | 16 (≈ 42.2 µM) | 16 (≈ 42.2 µM) | 16 (≈ 42.2 µM) | 16 (≈ 42.2 µM) | 16 (≈ 42.2 µM) | 16 (≈ 42.2 µM) | 8 (≈ 21.1 µM) | 8 (≈ 21.1 µM) | 16 (≈ 42.2 µM) | 16 (≈ 42.2 µM) | 16 (≈ 42.2 µM) | 16 (≈ 42.2 µM) | 8 (≈ 21.1 µM) | 8 (≈ 21.1 µM) | > 32 | 16 (≈ 42.2 µM) | 8 (≈ 21.1 µM) | MIC (MRSA 0-2657): 8 µg/mL (≈ 21.1 µM); MIC (MRSA DB 00026): 16 µg/mL (≈ 42.2 µM); MIC [6]: > 16 µg/mL; MIC (S.epidermidis ATCC 12228): 8 µg/mL (≈ 21.1 µM); MIC (MRSE ATCC 35983): 8 µg/mL (≈ 21.1 µM); MIC (S.epidermis St 358): 8 µg/mL (≈ 21.1 µM); MIC (E.faecalis SP 346 VRE): 16 µg/mL (≈ 42.2 µM); MIC (E.faecium 6A VRE): 16 µg/mL (≈ 42.2 µM); MIC (E.faecium 134 VRE): 16 µg/mL (≈ 42.2 µM); MIC (E.faecium 06076 VRE): 16 µg/mL (≈ 42.2 µM); MIC (E.faecium ATCC 3567): 16 µg/mL (≈ 42.2 µM); anti-tubercular activity (in words) ([7]; Mycobacterium tuberculosis H37Rv): good anti-tubercular activity; MIC [7]: 6.25 µg/mL (≈ 16.5 µM) |
| C[Si]1(C)CCN(c2ccc(N3C[C@H](CO)OC3=O)cc2F)CC1 [NDS-10059, (R)-3-(4-(4,4-dimethyl-1,4-azasilinan-1-yl)-3-fluorophenyl)-5-(hydroxymethyl)oxazolidin-2-one] | > 32 | > 32 | > 32 | > 32 | > 32 | > 32 | > 32 | > 32 | > 32 | 32 (≈ 94.5 µM) | 32 (≈ 94.5 µM) | 32 (≈ 94.5 µM) | 32 (≈ 94.5 µM) | > 32 | 32 (≈ 94.5 µM) | > 32 | > 32 | 32 (≈ 94.5 µM) | 32 (≈ 94.5 µM) | > 32 | MIC (MRSA 0-2657): 32 µg/mL (≈ 94.5 µM); MIC (MRSA DB 00026): > 32 µg/mL; MIC [6]: > 32 µg/mL; MIC (S.epidermidis ATCC 12228): > 32 µg/mL; MIC (MRSE ATCC 35983): > 32 µg/mL; MIC (S.epidermis St 358): 32 µg/mL (≈ 94.5 µM); MIC (E.faecalis SP 346 VRE): 32 µg/mL (≈ 94.5 µM); MIC (E.faecium 6A VRE): > 32 µg/mL; MIC (E.faecium 134 VRE): 32 µg/mL (≈ 94.5 µM); MIC (E.faecium 06076 VRE): > 32 µg/mL; MIC (E.faecium ATCC 3567): > 32 µg/mL; MIC [7]: 100 µg/mL (≈ 295 µM) |
| COC(=O)NC[C@H]1CN(c2ccc(N3CC[Si](C)(C)CC3)c(F)c2)C(=O)O1 [NDS-10061, (S)-methyl((3-(4-(4,4-dimethyl-1,4-azasilinan-1-yl)-3-fluorophenyl)-2-oxooxazolidin-5-yl)methyl)carbamate] | 8 (≈ 20.2 µM) | 16 (≈ 40.5 µM) | > 32 | 16 (≈ 40.5 µM) | 16 (≈ 40.5 µM) | 16 (≈ 40.5 µM) | 16 (≈ 40.5 µM) | 8 (≈ 20.2 µM) | 16 (≈ 40.5 µM) | 8 (≈ 20.2 µM) | 8 (≈ 20.2 µM) | 8 (≈ 20.2 µM) | 32 (≈ 80.9 µM) | 16 (≈ 40.5 µM) | 32 (≈ 80.9 µM) | 16 (≈ 40.5 µM) | 16 (≈ 40.5 µM) | 8 (≈ 20.2 µM) | 16 (≈ 40.5 µM) | 32 (≈ 80.9 µM) | MIC (MRSA 0-2657): 16 µg/mL (≈ 40.5 µM); MIC (MRSA DB 00026): 16 µg/mL (≈ 40.5 µM); MIC [6]: 32 µg/mL (≈ 80.9 µM); MIC (S.epidermidis ATCC 12228): > 32 µg/mL; MIC (MRSE ATCC 35983): 16 µg/mL (≈ 40.5 µM); MIC (S.epidermis St 358): 32 µg/mL (≈ 80.9 µM); MIC (E.faecalis SP 346 VRE): 16 µg/mL (≈ 40.5 µM); MIC (E.faecium 6A VRE): 32 µg/mL (≈ 80.9 µM); MIC (E.faecium 134 VRE): 16 µg/mL (≈ 40.5 µM); MIC (E.faecium 06076 VRE): 32 µg/mL (≈ 80.9 µM); MIC (E.faecium ATCC 3567): 32 µg/mL (≈ 80.9 µM); MIC [7]: 25 µg/mL (≈ 63.2 µM) |
| C[Si]1(C)CCN(c2ccc(N3C[C@H](Cn4ccnn4)OC3=O)cc2F)CC1 [NDS-10060, (R)-5-((1H-1,2,3-triazol-1-yl)methyl)-3-(4-(4,4-dimethyl-1,4-azasilinan-1-yl)-3-fluorophenyl)oxazolidin-2-one] | 16 (≈ 41.1 µM) | 32 (≈ 82.2 µM) | 32 (≈ 82.2 µM) | 16 (≈ 41.1 µM) | 16 (≈ 41.1 µM) | 16 (≈ 41.1 µM) | 16 (≈ 41.1 µM) | 16 (≈ 41.1 µM) | 32 (≈ 82.2 µM) | 8 (≈ 20.5 µM) | 16 (≈ 41.1 µM) | 8 (≈ 20.5 µM) | 16 (≈ 41.1 µM) | 16 (≈ 41.1 µM) | 32 (≈ 82.2 µM) | 32 (≈ 82.2 µM) | 32 (≈ 82.2 µM) | 16 (≈ 41.1 µM) | 16 (≈ 41.1 µM) | 32 (≈ 82.2 µM) | MIC (MRSA 0-2657): 16 µg/mL (≈ 41.1 µM); MIC (MRSA DB 00026): 16 µg/mL (≈ 41.1 µM); MIC [6]: 32 µg/mL (≈ 82.2 µM); MIC (S.epidermidis ATCC 12228): > 32 µg/mL; MIC (MRSE ATCC 35983): 32 µg/mL (≈ 82.2 µM); MIC (S.epidermis St 358): 16 µg/mL (≈ 41.1 µM); MIC (E.faecalis SP 346 VRE): 16 µg/mL (≈ 41.1 µM); MIC (E.faecium 6A VRE): 32 µg/mL (≈ 82.2 µM); MIC (E.faecium 134 VRE): 16 µg/mL (≈ 41.1 µM); MIC (E.faecium 06076 VRE): 32 µg/mL (≈ 82.2 µM); MIC (E.faecium ATCC 3567): > 32 µg/mL; MIC [7]: 50 µg/mL (≈ 128 µM) |
| C[Si]1(C)CCN(c2c(F)cc(N3C[C@H](CN)OC3=O)cc2F)CC1 [NDS-10054, (S)-5-(aminomethyl)-3-(4-(4,4-dimethyl-1,4-azasilinan-1-yl)-3,5-difluorophenyl)oxazolidin-2-one] | 16 (≈ 45 µM) | 16 (≈ 45 µM) | 16 (≈ 45 µM) | 16 (≈ 45 µM) | 16 (≈ 45 µM) | 16 (≈ 45 µM) | 16 (≈ 45 µM) | 16 (≈ 45 µM) | 16 (≈ 45 µM) | 16 (≈ 45 µM) | 16 (≈ 45 µM) | 16 (≈ 45 µM) | 16 (≈ 45 µM) | 16 (≈ 45 µM) | 16 (≈ 45 µM) | 16 (≈ 45 µM) | 8 (≈ 22.5 µM) | > 32 | 16 (≈ 45 µM) | 16 (≈ 45 µM) | MIC (MRSA 0-2657): 16 µg/mL (≈ 45 µM); MIC (MRSA DB 00026): 16 µg/mL (≈ 45 µM); MIC [6]: 32 µg/mL (≈ 90 µM); MIC (S.epidermidis ATCC 12228): 32 µg/mL (≈ 90 µM); MIC (MRSE ATCC 35983): 32 µg/mL (≈ 90 µM); MIC (S.epidermis St 358): 16 µg/mL (≈ 45 µM); MIC (E.faecalis SP 346 VRE): 16 µg/mL (≈ 45 µM); MIC (E.faecium 6A VRE): 8 µg/mL (≈ 22.5 µM); MIC (E.faecium 134 VRE): 16 µg/mL (≈ 45 µM); MIC (E.faecium 06076 VRE): 16 µg/mL (≈ 45 µM); MIC (E.faecium ATCC 3567): 8 µg/mL (≈ 22.5 µM); MIC [7]: 25 µg/mL (≈ 70.3 µM) |
